In brackets after ≈: the same amount, converted by molar mass.
Tests used:
C. albicans (ATCC 14053) = experiment: Filter binding assay of Tc-99m-labelled conjugates; conditions: Tc-99m-labelled conjugate
Protocol: (§6) *Note: C. albicans has a longer growth cycle than the other microorganisms and, therefore, the culture is incubated for 2 days. Also, the optimum growth temperature for C. albicans is 30° C.
C. albicans (ATCC 14053)→YM Broth (YMB; Difco)
The cultures are then subcultured by removing 50-150 mL of the culture (O.D. dependent) and transferring to a 50 mL culture flask containing 20 mL broth. […] The concentration of each microorganism is determined by reading the optical density (O.D.) of the subculture using a spectrophotometer.
(§7) The flasks are incubated in a shaking water bath (200 rpm) at 37° C. […] There is also a background which is a flask containing broth with no microorganism and to which the radioactivity is also added. […] The filters are then assayed for radioactivity using a gamma well counter (Cobra II; Canberra Packard). […]

S. aureus (ATCC 25923) = experiment: Filter binding assay of Tc-99m-labelled conjugates; conditions: Tc-99m-labelled conjugate, 37° C.
Protocol: S. aureus (ATCC 25923)→TSB
(§8) The cultures are then subcultured by removing 50-150 mL of the culture (O.D. dependent) and transferring to a 50 mL culture flask containing 20 mL broth. The subcultures are incubated at 37° C. or 30° C. until a growth concentration of 10^8 cfu (colony forming unit)/mL is reached. The concentration of each microorganism is determined by reading the optical density (O.D.) of the subculture using a spectrophotometer. The correlation between O.D. and growth of each microorganism has been previously established.
as §7

E. coli (ATCC 25922) = experiment: Filter binding assay of Tc-99m-labelled conjugates; conditions: Tc-99m-labelled conjugate, 37° C.
Protocol: E. coli (ATCC 25922)→Tryptic Soy Broth (TSB; Difco)
as §8, §7

[1] = Filter binding assay of Tc-99m-labelled conjugates; conditions: Tc-99m-labelled conjugate, zymosan suspension 50 mg/mL
Protocol: as §6
The flasks are incubated in a shaking water bath (200 rpm) at 37° C. A 10 mL zymosan suspension at 50 mg/mL and a 0.5% carrageenan mixture are also made. There is also a background which is a flask containing broth with no microorganism and to which the radioactivity is also added. At various time intervals, 200 mL of the cultures, suspensions, and the background is removed and filtered through 25 mm diam., 22 mm, cellulose acetate/nitrate, membrane filters (Millipore) using a Millipore vacuum manifold. The filters are washed 3× with 1 mL PBS. The filters are then assayed for radioactivity using a gamma well counter (Cobra II; Canberra Packard). The time intervals at which the cultures are sampled are: […]

S. aureus = experiment: microbe, parasite or virus in culture; type: cell-based; conditions: for antimicrobial activity at the concentrations tested: S. aureus, up to 64 mg/mL
Protocol: (§1) Fresh cultures of bacteria are made from frozen stock stored at -80° C. To inoculate a fresh culture, the stock is removed from the freezer and continually kept frozen by being placed on dry ice. A small amount is removed using a sterile wooden applicator and transferred to a 50 mL culture flask, with screw cap, containing 10 mL of broth medium. The culture is incubated at 37° C. on an orbital shaker at 200 rpm overnight. The various bacteria and broth media used are:
(§2) The following day, the cultures are subcultured by transferring […] (O.D. dependent) to a new culture flask containing 20 mL broth. The subcultures are incubated at 37° C. on a shaker (200 rpm) and the bacteria are allowed to grow to mid-log phase. This is usually around 1×10^8 cfu/mL, determined by measuring the O.D. of the subculture. The correlation between O.D. and growth of each bacteria has been previously established.
(§3) Once the proper O.D. has been obtained, a 200- or 400-fold dilution is made of the subculture and 1 mL of this dilution is added to 1 mL of compound or antibiotic (i.e. 2-fold dilution) to give a final concentration of 0, 2, 4, 8, 16, 32, and 64 mg/mL compound or antibiotic. A 100-fold dilution is made from the control culture (0 mg/mL) and […] samples (i.e. 1000-fold dilution) are plated onto a TSA (tryptic soy agar; Difco). The cultures are incubated overnight at 37° C. on an orbital shaker (200 rpm). The TSA plates are also incubated overnight at 37° C.
(§4) The following day, the cultures are examined for growth or turbidity. […] samples (i.e. 10-fold dilution) of any of the cultures showing no turbidity, i.e. no growth, are plated onto TSA. The plates are incubated overnight at 37° C. and the number of cfu, if any, are counted. The control TSA plates are counted for the number of cfu for comparison with the culture plates.
(§5) MIC (minimal inhibitory concentration) is determined to be the lowest concentration at which growth of the bacteria is arrested. MBC (minimal bactericidal concentration) is determined to be the lowest concentration at which the bacteria are being killed.

E. coli = experiment: Antimicrobial assay; type: cell-based; conditions: up to 64 mg/mL
Protocol: as §1, §2, §3, §4, §5

P. aeruginosa = experiment: Antimicrobial assay; type: cell-based; conditions: up to 64 mg/mL
Protocol: as §1, §2, §3, §4, §5

[2] = test system: P. aeruginosa (ATCC PAO-PR1); experiment: Filter binding assay of Tc-99m-labelled conjugates; conditions: Tc-99m-labelled conjugate, 37° C.
Protocol: Frozen cultures of bacteria are stored in vials at -80° C. until use. To inoculate a fresh bacterial culture, the vial of bacteria is removed from the freezer and continually kept frozen by being placed on dry ice. A small amount is removed using a sterile wooden applicator and transferred to a 50 mL culture flask, with screw cap, containing 10 mL of broth medium. The culture is incubated at 37° C. on a shaker at 200 rpm overnight*. The various microorganisms or compounds and broth media used are:
P. aeruginosa (ATCC PAO-PR1)→TSB
The cultures are then subcultured by removing […] of the culture (O.D. dependent) and transferring to a 50 mL culture flask containing 20 mL broth. The subcultures are incubated at 37° C. or 30° C. until a growth concentration of 10^8 cfu (colony forming unit)/mL is reached. The concentration of each microorganism is determined by reading the optical density (O.D.) of the subculture using a spectrophotometer. […]
Once the proper O.D. has been reached, 10 mL of the subculture is transferred to a 15 mL culture flask and 1×10^6 cpm of Tc-99m-labelled compound is added. […] There is also a background which is a flask containing broth with no microorganism and to which the radioactivity is also added. […] The filters are then assayed for radioactivity using a gamma well counter (Cobra II; Canberra Packard). […]

In the case of “DimethylGly-Ser-Cys(Acm)-(βAla)3 -Lys(N^ε -Vancomycin)-Gly-OH [(IB)]”, the “Filter Binding Assay Results at 2 h, C. albicans” value (C. albicans (ATCC 14053)) is reported as 5%, the “Filter Binding Assay Results at 2 h, S. aureus” value (S. aureus (ATCC 25923)) is reported as 22% and the “Filter Binding Assay Results at 2 h, E. coli” value (E. coli (ATCC 25922)) is reported as 18%. For the same compound, the “Filter Binding Assay Results at 2 h, Zymosan” value [1] was 42%.

For `CN[C@H](CC(C)C)C(=O)N[C@H]1C(=O)N[C@@H](CC(N)=O)C(=O)N[C@H]2C(=O)N[C@H]3C(=O)N[C@H](C(=O)N[C@H](C(=O)O)c4cc(O)cc(O)c4-c4cc3ccc4O)[C@H](O)c3ccc(c(Cl)c3)Oc3cc2cc(c3O[C@@H]2O[C@H](CO)[C@@H](O)[C@H](O)[C@H]2O[C@H]2C[C@](C)(N)[C@H](O)[C@H](C)O2)Oc2ccc(cc2Cl)[C@H]1O` [Vancomycin, reference compound], the “antimicrobial activity at the concentrations tested” value (“antimicrobial activity” for short) (S. aureus) was “antimicrobial against only S. aureus”, the MBC (S. aureus; Staphylococcus aureus, read-out: MBC (minimal bactericidal concentration)) was 32 to 64 mg/mL (≈ 22.1 to 44.2 mM) and the “antimicrobial activity” value (E. coli) was “antimicrobial against only S. aureus”. For the same compound, the “antimicrobial activity” value (P. aeruginosa) was “antimicrobial against only S. aureus”.

In the case of `CN[C@H](CC(C)C)C(=O)N[C@H]1C(=O)N[C@@H](CC(N)=O)C(=O)N[C@H]2C(=O)N[C@H]3C(=O)N[C@H](C(=O)N[C@H](C(=O)NCCCNC(=O)CNC(=O)C(CSCNC(C)=O)NC(=O)C(CO)NC(=O)CN(C)C)c4cc(O)cc(O)c4-c4cc3ccc4O)[C@H](O)c3ccc(c(Cl)c3)Oc3cc2cc(c3O[C@@H]2O[C@H](CO)[C@@H](O)[C@H](O)[C@H]2O[C@H]2C[C@](C)(N)[C@H](O)[C@H](C)O2)Oc2ccc(cc2Cl)[C@H]1O` (stereo partly drawn) [(IA), DimethylGly-Ser-Cys(Acm)-Gly-NH(CH2)3 NH-Vancomycin], the “MBC (minimal bactericidal concentration)” value (S. aureus) is reported as 32 mg/mL (≈ 16.8 mM), the “MIC (minimal inhibitory concentration)” value (S. aureus) is reported as 16 to 32 mg/mL and the “antimicrobial activity” value (S. aureus) is reported as “antimicrobial against only S. aureus”. The “Filter Binding Assay Results at 2 h, C. albicans” value (C. albicans (ATCC 14053)) was 21%, the “antimicrobial activity” value (E. coli) was “antimicrobial against only S. aureus” and the “antimicrobial activity” value (P. aeruginosa) was “antimicrobial against only S. aureus”. For the same compound, the “Filter Binding Assay Results at 2 h, P. aeruginosa” value [2] was 25%, the “Filter Binding Assay Results at 2 h, S. aureus” value (S. aureus (ATCC 25923)) was 48% and the “Filter Binding Assay Results at 2 h, E. coli” value (E. coli (ATCC 25922)) was 31%. The “Filter Binding Assay Results at 2 h, Zymosan” value [1] was 35%.

Source: patent US6017511A, “Glycopeptide-chelator conjugates” (Resolution Pharmaceuticals Inc., priority 1997, dated 2000)
